This is an account of results in patent US7879881B2, “Piperidinyl compounds that selectively bind integrins” (Janssen Pharmaceutica NV, priority 2002, dated 2011).

One experiment concerns the target T1, Human αvβ3 (Homo sapiens, UniProt P05106+P06756).
T1 construct: purchased Chemicon International Inc., Temecula, Calif
As to the kind of experiment: In Vitro Solid Phase Purified αvβ3 Binding Assay (vitronectin/αvβ3). Conditions: vitronectin binding to immobilized purified human αvβ3, mean ± spread. As for the experimental part:
In Vitro Solid Phase Purified αvβ3 Binding Assay
(§1) Human αvβ3 (Chemicon International Inc., Temecula, Calif.), at a concentration of 1 μg/ml dissolved in Tris buffer (20 mM Tris, 1 mM CaCl2, 1 mM MgCl2, 10 μM MnCl2, 150 mM NaCl), was immobilized on Immulon 96 well plates (Dynex Technologies, Chantilly, Va.) overnight at 4° C. Plates were washed and treated with blocking buffer (3% BSA in Tris buffer) for 2 h at 37° C. Plates were then rinsed 2 times with assay buffer comprised of Tris buffer. Synthesized compounds were added to wells in duplicate immediately prior to the addition of 2 nM vitronectin (Sigma, St. Louis, Mo.). Following a 3 hour incubation at 37° C., plates were washed 5 times in assay buffer. An anti-human vitronectin IgG rabbit polyclonal antibody (Calbiochem, San Diego, Calif.) was added (1:2000) and plates were incubated for 1 hour at room temperature. VectaStain ABC peroxidase kit reagents (Vector Laboratories, Burlingame, Calif.) employing a biotin labeled anti-rabbit IgG, were utilized for detection of bound antibody. Plates were read at 490 nm on a Molecular Devices (Sunnyvale, Calif.) microplate reader.

A further experiment has as its target T2, human purified αVβ5 (Homo sapiens, UniProt P06756+P18084).
T2 construct: purchased Chemicon International, Inc
As to the kind of experiment: In Vitro Solid Phase Purified αcβ5 Binding Assay (vitronectin/αVβ5). Conditions: vitronectin binding to immobilized purified human αVβ5, mean ± spread. The method, then:
as §1
In Vitro Solid Phase Purified αcβ5 Binding Assay
All other aspects of the assay including buffers, reagents and incubation times remain unchanged.

The next experiment concerns the target GP IIb/IIIa (Homo sapiens, UniProt P05106+P08514). As to the kind of experiment: In Vitro Solid Phase Purified GP IIb/IIIa Binding Assay (biotinylated fibrinogen). Conditions: biotinylated fibrinogen binding to immobilized purified GP IIb/IIIa, mean ± spread. The method, then: In Vitro Solid Phase Purified GP IIb/IIIa Binding Assay
The plate was covered and incubated overnight at 4° C. The GP IIb/IIIa solution was discarded and 150 μL of 5% BSA was added and incubated at RT for 1-3 h. The plate was washed extensively with modified Tyrodes buffer. Biotinylated fibrinogen (25 μL/well) at 2× final concentration was added to the wells that contain the test compounds (25 μL/well). The plate was covered and incubated at RT for 2-4 h. Twenty minutes prior to incubation completion, one drop of Reagent A (VectaStain ABC Horseradish Peroxidase kit, Vector Laboratories, Inc.) and one drop Reagent B were added with mixing to 5 mL modified Tyrodes buffer mix and let stand. The ligand solution was discarded and the plate washed (5×200 μL/well) with modified Tyrodes buffer. […] The Vecta Stain solution was discarded and the wells washed (5×200 μL/well) with modified Tyrodes buffer. Developing buffer (10 mL of 50 mM citrate/phosphate buffer @ pH 5.3, 6 mg o-phenylenediamine, 6 μL 30% H2O2; 50 μL/well) was added and incubated at RT for 3-5 min and then 2 N H2SO4 (50 μL/well) was added.

Read-outs that look alike come from different tables or passages of the source.

T2 sequence (P06756 31-889 limits assumed): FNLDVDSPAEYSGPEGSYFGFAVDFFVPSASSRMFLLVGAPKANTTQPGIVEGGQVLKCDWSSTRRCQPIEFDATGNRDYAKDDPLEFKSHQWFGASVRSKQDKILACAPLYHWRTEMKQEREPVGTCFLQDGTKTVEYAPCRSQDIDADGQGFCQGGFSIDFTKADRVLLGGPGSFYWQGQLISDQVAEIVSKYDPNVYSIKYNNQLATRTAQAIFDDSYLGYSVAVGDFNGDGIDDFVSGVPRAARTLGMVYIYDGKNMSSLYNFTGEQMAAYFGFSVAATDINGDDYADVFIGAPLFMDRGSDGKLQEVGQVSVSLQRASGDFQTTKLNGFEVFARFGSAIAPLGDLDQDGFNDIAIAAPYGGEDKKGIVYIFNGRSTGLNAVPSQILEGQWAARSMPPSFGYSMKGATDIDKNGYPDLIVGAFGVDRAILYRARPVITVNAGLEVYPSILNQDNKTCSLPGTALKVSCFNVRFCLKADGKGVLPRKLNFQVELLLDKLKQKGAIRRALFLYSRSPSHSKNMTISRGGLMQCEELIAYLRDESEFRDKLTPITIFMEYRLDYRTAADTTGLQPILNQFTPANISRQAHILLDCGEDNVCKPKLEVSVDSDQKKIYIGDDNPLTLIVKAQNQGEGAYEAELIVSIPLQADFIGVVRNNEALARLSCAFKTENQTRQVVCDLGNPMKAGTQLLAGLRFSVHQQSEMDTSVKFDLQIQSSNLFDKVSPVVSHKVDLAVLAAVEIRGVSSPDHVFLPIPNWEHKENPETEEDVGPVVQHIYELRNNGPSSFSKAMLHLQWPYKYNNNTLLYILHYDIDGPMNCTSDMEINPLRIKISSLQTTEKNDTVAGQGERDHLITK
T2 sequence (P06756 891-1048 partner limits assumed): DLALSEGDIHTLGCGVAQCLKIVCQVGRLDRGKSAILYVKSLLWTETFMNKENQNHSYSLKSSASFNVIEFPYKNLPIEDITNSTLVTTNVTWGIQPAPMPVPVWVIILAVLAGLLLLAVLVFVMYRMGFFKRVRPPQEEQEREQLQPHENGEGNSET
T2 sequence (P18084 24-799): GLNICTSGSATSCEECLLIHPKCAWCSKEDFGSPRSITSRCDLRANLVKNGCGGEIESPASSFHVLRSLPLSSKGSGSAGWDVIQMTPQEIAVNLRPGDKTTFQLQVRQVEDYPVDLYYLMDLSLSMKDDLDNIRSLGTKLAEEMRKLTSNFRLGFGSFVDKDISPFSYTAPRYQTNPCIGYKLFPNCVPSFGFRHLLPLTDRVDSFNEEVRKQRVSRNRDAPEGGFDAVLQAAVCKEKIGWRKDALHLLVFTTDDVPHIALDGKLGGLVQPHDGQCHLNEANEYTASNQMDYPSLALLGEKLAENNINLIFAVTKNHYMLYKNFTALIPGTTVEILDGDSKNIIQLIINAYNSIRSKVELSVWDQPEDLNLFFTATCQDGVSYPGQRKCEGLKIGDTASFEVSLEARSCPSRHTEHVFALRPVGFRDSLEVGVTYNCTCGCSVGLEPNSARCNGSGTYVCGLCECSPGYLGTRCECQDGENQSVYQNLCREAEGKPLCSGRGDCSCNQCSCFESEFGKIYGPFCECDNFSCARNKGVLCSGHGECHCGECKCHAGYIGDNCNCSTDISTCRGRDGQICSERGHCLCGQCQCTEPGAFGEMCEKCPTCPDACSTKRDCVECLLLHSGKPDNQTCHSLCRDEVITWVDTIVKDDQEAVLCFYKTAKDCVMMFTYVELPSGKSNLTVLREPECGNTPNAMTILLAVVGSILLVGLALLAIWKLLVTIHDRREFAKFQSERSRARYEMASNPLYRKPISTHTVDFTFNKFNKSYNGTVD
T1 sequence (P06756 31-889 limits assumed): as the sequence (P06756 31-889 limits assumed) above
T1 sequence (P06756 891-1048 partner limits assumed): as the sequence (P06756 891-1048 partner limits assumed) above
T1 sequence (P05106 27-788): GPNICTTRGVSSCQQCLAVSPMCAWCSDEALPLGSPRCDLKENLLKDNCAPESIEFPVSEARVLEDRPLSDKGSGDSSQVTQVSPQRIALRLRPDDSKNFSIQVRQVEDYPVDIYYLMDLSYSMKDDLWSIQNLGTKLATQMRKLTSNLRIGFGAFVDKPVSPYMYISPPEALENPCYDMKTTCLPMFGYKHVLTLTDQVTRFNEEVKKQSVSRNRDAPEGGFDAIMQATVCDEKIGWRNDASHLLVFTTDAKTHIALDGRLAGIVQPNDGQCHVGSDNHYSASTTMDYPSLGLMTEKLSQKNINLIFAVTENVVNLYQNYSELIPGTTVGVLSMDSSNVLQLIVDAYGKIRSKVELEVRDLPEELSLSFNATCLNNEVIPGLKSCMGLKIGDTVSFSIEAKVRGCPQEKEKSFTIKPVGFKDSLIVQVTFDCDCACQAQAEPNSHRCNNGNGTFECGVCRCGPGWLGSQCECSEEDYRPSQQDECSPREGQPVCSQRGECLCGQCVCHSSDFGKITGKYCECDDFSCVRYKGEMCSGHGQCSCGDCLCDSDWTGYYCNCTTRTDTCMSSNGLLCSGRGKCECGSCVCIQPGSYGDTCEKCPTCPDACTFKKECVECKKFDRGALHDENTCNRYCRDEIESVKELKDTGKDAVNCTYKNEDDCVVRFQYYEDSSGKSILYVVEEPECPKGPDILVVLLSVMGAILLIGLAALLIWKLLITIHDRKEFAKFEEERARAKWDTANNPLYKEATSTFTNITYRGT
Chain of GP IIb/IIIa (P08514 32-887 limits assumed): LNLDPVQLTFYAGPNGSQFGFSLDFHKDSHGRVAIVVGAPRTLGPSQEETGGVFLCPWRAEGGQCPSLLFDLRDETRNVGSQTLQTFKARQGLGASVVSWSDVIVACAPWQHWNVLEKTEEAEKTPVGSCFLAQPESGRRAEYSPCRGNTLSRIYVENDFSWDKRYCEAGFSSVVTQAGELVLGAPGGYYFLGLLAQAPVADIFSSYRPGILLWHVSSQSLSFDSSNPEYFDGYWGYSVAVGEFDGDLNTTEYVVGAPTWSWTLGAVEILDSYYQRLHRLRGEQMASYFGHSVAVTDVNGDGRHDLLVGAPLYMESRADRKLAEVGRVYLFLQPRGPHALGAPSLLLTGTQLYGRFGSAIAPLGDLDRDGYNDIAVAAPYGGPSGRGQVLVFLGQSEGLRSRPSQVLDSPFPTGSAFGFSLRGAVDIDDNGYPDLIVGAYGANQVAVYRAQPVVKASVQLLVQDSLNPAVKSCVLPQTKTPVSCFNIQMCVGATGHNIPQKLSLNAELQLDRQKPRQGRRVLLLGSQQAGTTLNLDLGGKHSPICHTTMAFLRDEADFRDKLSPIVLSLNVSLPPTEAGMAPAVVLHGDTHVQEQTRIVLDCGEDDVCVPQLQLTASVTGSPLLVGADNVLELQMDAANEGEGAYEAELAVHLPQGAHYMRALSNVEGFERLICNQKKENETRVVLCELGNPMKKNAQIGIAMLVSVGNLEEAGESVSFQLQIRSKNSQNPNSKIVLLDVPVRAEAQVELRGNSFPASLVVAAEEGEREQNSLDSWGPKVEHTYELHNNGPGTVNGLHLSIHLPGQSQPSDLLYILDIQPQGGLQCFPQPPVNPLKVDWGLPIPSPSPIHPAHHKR
Chain of GP IIb/IIIa (P08514 891-1039 partner limits assumed): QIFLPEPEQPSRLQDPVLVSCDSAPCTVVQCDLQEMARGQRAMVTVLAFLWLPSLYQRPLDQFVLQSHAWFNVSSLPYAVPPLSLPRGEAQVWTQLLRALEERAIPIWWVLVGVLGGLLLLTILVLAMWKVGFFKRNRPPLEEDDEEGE
Chain of GP IIb/IIIa (P05106 27-788): as the sequence (P05106 27-788) above

`O=C(O)CC(CC1CCN(C(=O)CCc2ccc3c(n2)NCCC3)CC1)c1cccc(C(F)(F)F)c1` (stereo not drawn) [Cpd 39, 1-[1-oxo-3-(5,6,7,8-tetrahydro-1,8-naphthyridin-2-yl)propyl]-β-[3-(trifluoromethyl)phenyl]-4-piperidinebutanoic acid]: the figures for the IC50 on Human αvβ3 (read-out: αvβ3IC50), at human purified αVβ5 (read-out: αvβ5 IC50) and on GP IIb/IIIa (read-out: αIIbβ3 IC50) were 0.0066 ± 0.0018 µM, 0.0287 ± 0.0133 µM and over 50 µM, respectively.

On to `O=C(O)CC(CC1CCN(C(=O)c2cccc(NC3=NCC(O)CN3)c2)CC1)c1ccc2c(c1)OCO2` (stereo not drawn) [Cpd 27, β-(1,3-benzodioxol-5-yl)-1-[3-[(1,4,5,6-tetrahydro-5-hydroxy-2-pyrimidinyl)amino]benzoyl]-4-piperidinebutanoic acid], for which the IC50 worked out at 0.048 µM at Human αvβ3 (read-out: αvβ3IC50), 0.81 µM on human purified αVβ5 (read-out: αvβ5 IC50) and 1.62 ± 0.56 µM at GP IIb/IIIa (read-out: αIIbβ3 IC50).

`O=C(O)CC(c1ccc2c(c1)OCO2)C1CCN(C(=O)Cc2ccc3c(n2)NCCC3)CC1` (stereo not drawn) [Cpd 16, β-(1,3-benzodioxol-5-yl)-1-[(5,6,7,8-tetrahydro-1,8-naphthyridin-2-yl)acetyl]-4-piperidinepropanoic acid]: the figures for the IC50 on Human αvβ3 (read-out: αvβ3IC50), on human purified αVβ5 (read-out: αvβ5 IC50) and on GP IIb/IIIa (read-out: αIIbβ3 IC50) were 0.281 µM, 0.775 µM and 25.4 µM, respectively.

For `O=C(O)CC(CC1CCN(C(=O)CCc2ccc3c(n2)NCCC3)CC1)c1ccc(OC(F)(F)F)cc1` (stereo not drawn) [Cpd 40, 1-[1-oxo-3-(5,6,7,8-tetrahydro-1,8-naphthyridin-2-yl)propyl]-β-[4-(trifluoromethoxy)phenyl]-4-piperidinebutanoic acid], the IC50 on Human αvβ3 (read-out: αvβ3IC50) turned out to be 0.0052 ± 0.0002 µM; at human purified αVβ5 (read-out: αvβ5 IC50) it was 0.308 ± 0.063 µM; on GP IIb/IIIa (read-out: αIIbβ3 IC50) it was 24 ± 9.89 µM.

“β-[2-[1-[1-oxo-3-(5,6,7,8-tetrahydro-1,8-naphthyridin-2-yl)propyl]-4-piperidinyl]ethyl]-3-quinolinepropanoic acid [Cpd 52]”: the IC50 at Human αvβ3 (read-out: αvβ3IC50) was 0.0064 ± 0.0014 µM; at human purified αVβ5 (read-out: αvβ5 IC50) it was over 50 µM; at GP IIb/IIIa (read-out: αIIbβ3 IC50), 0.57 ± 0.04 µM.

For `O=C(O)CC(CC1CCN(C(=O)CCc2ccc3c(n2)NCCC3)CC1)C1CNc2ccccc2C1` (single isomer, unassigned) [Cpd 19-2, 1,2,3,4-tetrahydro-β-[[1-[1-oxo-3-(5,6,7,8-tetrahydro-1,8-naphthyridin-2-yl)propyl]-4-piperidinyl]methyl]-3-quinolinepropanoic acid], the IC50 is 0.0013 ± 0.0001 µM at Human αvβ3 (read-out: αvβ3IC50), 0.0092 ± 0.0004 µM on human purified αVβ5 (read-out: αvβ5 IC50) and 12.9 µM at GP IIb/IIIa (read-out: αIIbβ3 IC50).

For the compound `O=C(O)CC(CC1CCN(C(=O)CCc2ccc3c(n2)NCCC3)CC1)c1ccc(-c2ccccc2)c(F)c1` (stereo not drawn) [Cpd 41, β-(2-fluoro[1,1′-biphenyl]-4-yl)-1-[1-oxo-3-(5,6,7,8-tetrahydro-1,8-naphthyridin-2-yl)propyl]-4-piperidinebutanoic acid], the IC50 at Human αvβ3 (read-out: αvβ3IC50) worked out at 0.0018 ± 0.001 µM; on human purified αVβ5 (read-out: αvβ5 IC50), 0.873 ± 0.158 µM; on GP IIb/IIIa (read-out: αIIbβ3 IC50), 19.3 ± 2.6 µM.

With `O=C(O)CC(CCC1CCN(C(=O)c2cccc(NC3=NCCCC3)c2)CC1)c1cnc2ccccc2c1` (stereo not drawn) [Cpd 50, β-[2-[1-[3-[(3,4,5,6-tetrahydro-2-pyridinyl)amino]benzoyl]-4-piperidinyl]ethyl]-3-quinolinepropanoic acid], the IC50 on Human αvβ3 (read-out: αvβ3IC50) worked out at 0.0156 ± 0.0044 µM; at human purified αVβ5 (read-out: αvβ5 IC50), 0.676 µM; at GP IIb/IIIa (read-out: αIIbβ3 IC50) it was 0.19 ± 0.04 µM.

For `COc1ncc(C(CC(=O)O)CC2CCN(C(=O)CCc3ccc4c(n3)NCCC4)CC2)cn1` (stereo not drawn) [Cpd 48, 2-methoxy-β-[[1-[1-oxo-3-(5,6,7,8-tetrahydro-1,8-naphthyridin-2-yl)propyl]-4-piperidinyl]methyl]-5-pyrimidinepropanoic acid], the IC50 at Human αvβ3 (read-out: αvβ3IC50) came to 0.001 ± 0.0005 µM; at human purified αVβ5 (read-out: αvβ5 IC50), 0.0033 ± 0.0014 µM; at GP IIb/IIIa (read-out: αIIbβ3 IC50) it was 1.21 ± 0.2 µM.

Take `COc1ccc(C(CC(=O)O)CC2CCN(C(=O)CCc3ccc4c(n3)NCCC4)CC2)cc1F` (stereo not drawn) [Cpd 42, β-(3-fluoro-4-methoxyphenyl)-1-[1-oxo-3-(5,6,7,8-tetrahydro-1,8-naphthyridin-2-yl)propyl]-4-piperidinebutanoic acid]: the results for the IC50 at Human αvβ3 (read-out: αvβ3IC50), on human purified αVβ5 (read-out: αvβ5 IC50) and on GP IIb/IIIa (read-out: αIIbβ3 IC50) were 0.0007 ± 0.0003 µM, 0.0189 ± 0.0046 µM and 5 ± 0.74 µM, respectively.

For the compound `O=C(O)CC(CC1CCN(C(=O)CCc2ccc3c(n2)NCCC3)CC1)c1ccc2ccccc2c1` (single isomer, unassigned) [Cpd 56a, 3-Naphthalen-2-yl-4-[1-(3-5,6,7,8-tetrahydro-[1,8]naphthyridin-2-yl-propionyl)-piperidin-4-yl]-butyric acid], the figures for the IC50 on Human αvβ3 (read-out: αvβ3IC50), at human purified αVβ5 (read-out: αvβ5 IC50) and at GP IIb/IIIa (read-out: αIIbβ3 IC50) were 0.0005 ± 0.0002 µM, 0.0265 ± 0.0034 µM and 14.7 µM, respectively.

With `O=C(O)CC(C1CCN(C(=O)CCCc2ccc3c(n2)NCCC3)CC1)C1CNc2ccccc2C1` (single isomer, unassigned) [Cpd 5-4, 1,2,3,4-Tetrahydro-β-[1-[1-oxo-4-(5,6,7,8-tetrahydro-1,8-naphthyridin-2-yl)butyl]-4-piperidinyl]-3-quinolinepropanoic acid], the IC50 on Human αvβ3 (αvβ3IC50 (uM)) is 0.0054 ± 0.0002 µM; at human purified αVβ5 (αvβ5 IC50 (uM)) it was 0.162 ± 0.0627 µM; at GP IIb/IIIa (read-out: αIIbβ3 IC50), 9.82 µM.

Take `CN(C)c1cccc(C(CC(=O)O)CC2CCN(C(=O)CCc3ccc4c(n3)NCCC4)CC2)c1` (racemic) [Cpd 75]: the IC50 on Human αvβ3 (read-out: αvβ3IC50) was 0.0053 ± 0.001 µM; at human purified αVβ5 (read-out: αvβ5 IC50), 0.0419 ± 0.0052 µM; at GP IIb/IIIa (read-out: αIIbβ3 IC50), over 50 µM.

Turning to `NC(=O)CC(CC1CCN(C(=O)CCc2ccc3c(n2)NCCC3)CC1)c1cccc(F)c1` (racemic) [Cpd 64, 3-(3-Fluoro-phenyl)-4-[1-(3-5,6,7,8-tetrahydro-[1,8]naphthyridin-2-yl-propionyl)-piperidin-4-yl]-butyramide], the IC50 was 0.0615 ± 0.0055 µM at Human αvβ3 (read-out: αvβ3IC50), 0.147 ± 0.0847 µM on human purified αVβ5 (read-out: αvβ5 IC50) and over 50 µM at GP IIb/IIIa (read-out: αIIbβ3 IC50).

Regarding `O=C(O)CC(CC1CCN(C(=O)CCCc2ccc3c(n2)NCCC3)CC1)c1ccc(F)cc1` (stereo not drawn) [Cpd 34, β-(4-fluorophenyl)-1-[1-oxo-4-(5,6,7,8-tetrahydro-1,8-naphthyridin-2-yl)butyl]-4-piperidinebutanoic acid], the IC50 is 0.148 ± 0.1 µM on Human αvβ3 (read-out: αvβ3IC50), 1.04 ± 0.109 µM at human purified αVβ5 (read-out: αvβ5 IC50) and over 50 µM at GP IIb/IIIa (read-out: αIIbβ3 IC50).

For `O=C(O)CC(c1cnc2ccccc2c1)C1CCN(C(=O)CCCc2ccc3c(n2)NCCC3)CC1` (stereo not drawn) [Cpd 4, β-[1-[1-Oxo-4-(5,6,7,8-tetrahydro-1,8-naphthyridin-2-yl)butyl]-4-piperidinyl]-3-quinolinepropanoic acid], the values for the IC50 on Human αvβ3 (αvβ3IC50 (uM)), at human purified αVβ5 (αvβ5 IC50 (uM)) and on GP IIb/IIIa (αIIbβ3 IC50 (uM)) were 0.0005 ± 0.0001 µM, 0.0355 ± 0.0089 µM and 0.87 ± 0.19 µM, respectively.

With `COc1ccc(C(CCC2CCN(C(=O)CCc3ccc4c(n3)NCCC4)CC2)CC(=O)O)cn1` (single isomer, unassigned) [Cpd 21a, 6-methoxy-β-[2-[1-[1-oxo-3-(5,6,7,8-tetrahydro-1,8-naphthyridin-2-yl)propyl]-4-piperidinyl]ethyl]-3-pyridinepropanoic acid], the results for the IC50 on Human αvβ3 (read-out: αvβ3IC50), on human purified αVβ5 (read-out: αvβ5 IC50) and at GP IIb/IIIa (read-out: αIIbβ3 IC50) were 0.0213 ± 0.0019 µM, 0.841 ± 0.405 µM and 5.31 µM, respectively.

As for `CSc1cccc(C(CC(=O)O)CC2CCN(C(=O)CCc3ccc4c(n3)NCCC4)CC2)c1` (racemic) [Cpd 66], the IC50 at Human αvβ3 (read-out: αvβ3IC50) was 0.0012 ± 0.0001 µM; at human purified αVβ5 (read-out: αvβ5 IC50), 0.0103 ± 0.0014 µM; on GP IIb/IIIa (read-out: αIIbβ3 IC50), 28.3 µM.

On to `O=C(O)CC(c1cnc2ccccc2c1)C1CCN(C(=O)Cc2cccc(NC3=NCC(O)CN3)c2)CC1` (stereo not drawn) [Cpd 3, β-[1-[[3-[(1,4,5,6-Tetrahydro-5-hydroxy-2-pyrimidinyl)amino]phenyl]acetyl]-4-piperidinyl]-3-quinolinepropanoic acid], for which the values for the IC50 on Human αvβ3 (read-out: αvβ3IC50), at human purified αVβ5 (read-out: αvβ5 IC50) and at GP IIb/IIIa (read-out: αIIbβ3 IC50) were 0.0036 ± 0.0004 µM, 2.5 µM and 0.21 µM, respectively.

As to `COc1ccc(C(CCC2CCN(C(=O)CCc3ccc4c(n3)NCCC4)CC2)CC(=O)O)cn1` (stereo not drawn) [Cpd 21, 6-methoxy-β-[2-[1-[1-oxo-3-(5,6,7,8-tetrahydro-1,8-naphthyridin-2-yl)propyl]-4-piperidinyl]ethyl]-3-pyridinepropanoic acid], the IC50 amounted to 0.028 ± 0.0031 µM at Human αvβ3 (read-out: αvβ3IC50), 0.78 µM at human purified αVβ5 (read-out: αvβ5 IC50) and 1.8 ± 0.63 µM at GP IIb/IIIa (read-out: αIIbβ3 IC50).

Take `CC(C)OC(=O)CCCC1CCN(C(=O)CCc2ccc3c(n2)NCCC3)CC1` [Cpd 69, 4-[1-(3-5,6,7,8-Tetrahydro-[1,8]naphthyridin-2-yl-propionyl)-piperidin-4-yl]-butyric acid isopropyl ester]: the IC50 at Human αvβ3 (read-out: αvβ3IC50) is over 0.5 µM; at human purified αVβ5 (read-out: αvβ5 IC50), over 1 µM; at GP IIb/IIIa (read-out: αIIbβ3 IC50) it was over 50 µM.
